# Results reported in patent publication US6291470A, “Indole derivatives process for producing the same and medicinal uses of the same” (Toray Industries, Inc., priority 1992, dated 2001).
# Key:
# [1] = tested on: delayed type hypersensitivity; assay: Mouse Delayed Type Hypersensitivity Reaction Suppression Test-3 (administration into cerebral ventricles); type: in vivo; details: 5×10^-8 mol/mouse into cerebral ventricles; BALB/c
# Description: (§1) BALB/c mice (male, 7 weeks old) were used, and each group consisted of 4-5 mice. Spleen cells (1×10^7) obtained from a donor mouse (C57BL/6) was subcutaneously administered to sensitize the mice. On Day 7 from the sensitization, the spleen cells (5×10^6) of the donor were subcutaneously administered on the right footpad and spleen cells (5×10^6) obtained from a mouse of the same strain as the recipient mice were subcutaneously administered on the left footpad. Twenty four hours later, the thicknesses of the right and left footpads were measured with a dial thickness gage, and the difference in thicknesses of the right and left footpads before the induction of the reaction and 24 hours after the induction of the reaction was employed as the index of the degree of the reaction.
# The test compound was dissolved in water and 5×10^-8 mol/mouse was administered into cerebral ventricles. In the control group, water alone was administered similarly. The dose was 5 μl/mouse in both the study groups and the control group.
# [2] = tested on: delayed type hypersensitivity; assay: Delayed type hypersensitivity suppression test using mice from which adrenal glands have been removed; type: in vivo, mouse; details: for % Suppression: subcutaneous, totally 8 days
# Description: The mechanism of immunosuppression of the compound of the present invention was examined using delayed type hypersensitivity suppression test using mice from which adrenal glands have been removed.
# as §1
# The adrenectomy was performed by cutting the back of each recipient mouse under anesthesia with ether before the sensitization and removing the adrenal gland. Sham operation was performed by cutting the back of each recipient mouse but not removing the adrenal gland.
# The test compound was dissolved in 10% DMSO-water and was subcutaneously administered everyday from the day of sensitization to the day of induction of the reaction, totally 8 days. In the control group, 10% DMSO-water alone was administered in the same manner. The volume of administration was 10 ml/kg in both study groups and in the control groups.
# immune system = details: in vitro and in vivo; Kokai No. 3-223288; cited from earlier work
smiles,measurement,setting,value
"Oc1ccc2c3c1O[C@H]1c4[nH]c5ccccc5c4C[C@@]4(O)[C@@H](C2)N(CC2CC2)CC[C@]314 [NTI, reference compound]",% Suppression,[1],40%
same,suppressive effect after removing adrenal gland (in words),[2]; Adrenectomy vs sham,disappeared by removing adrenal gland
same,% Suppression,[2]; Adrenectomy,0%
same,% Suppression,[2]; Sham Operation,50%
same,immunosuppressive action (in words),immune system,exhibits immunosuppressive action in vitro and in vivo
